pIC50: −log10 of the molar value.
The molecules below were run against T1, human Nav1.8 (hNav1.8) ion channel (Homo sapiens, UniProt Q9Y5Y9) (assay: Inhibition of human Nav1.8 stably expressed in SH-SY-5Y cells (membrane potential dye fluorescence assay)). Settings: IC50, Table 1; SH-SY-5Y hNav1.8 cells, inhibition of membrane depolarisation, FLIPR membrane potential dye, 250 nM TTX, test concentration range 100 μM-0.05 μM.
T1 construct: expressed in transfected cells
Format: cell-based

T1 sequence (Q9Y5Y9 whole entry): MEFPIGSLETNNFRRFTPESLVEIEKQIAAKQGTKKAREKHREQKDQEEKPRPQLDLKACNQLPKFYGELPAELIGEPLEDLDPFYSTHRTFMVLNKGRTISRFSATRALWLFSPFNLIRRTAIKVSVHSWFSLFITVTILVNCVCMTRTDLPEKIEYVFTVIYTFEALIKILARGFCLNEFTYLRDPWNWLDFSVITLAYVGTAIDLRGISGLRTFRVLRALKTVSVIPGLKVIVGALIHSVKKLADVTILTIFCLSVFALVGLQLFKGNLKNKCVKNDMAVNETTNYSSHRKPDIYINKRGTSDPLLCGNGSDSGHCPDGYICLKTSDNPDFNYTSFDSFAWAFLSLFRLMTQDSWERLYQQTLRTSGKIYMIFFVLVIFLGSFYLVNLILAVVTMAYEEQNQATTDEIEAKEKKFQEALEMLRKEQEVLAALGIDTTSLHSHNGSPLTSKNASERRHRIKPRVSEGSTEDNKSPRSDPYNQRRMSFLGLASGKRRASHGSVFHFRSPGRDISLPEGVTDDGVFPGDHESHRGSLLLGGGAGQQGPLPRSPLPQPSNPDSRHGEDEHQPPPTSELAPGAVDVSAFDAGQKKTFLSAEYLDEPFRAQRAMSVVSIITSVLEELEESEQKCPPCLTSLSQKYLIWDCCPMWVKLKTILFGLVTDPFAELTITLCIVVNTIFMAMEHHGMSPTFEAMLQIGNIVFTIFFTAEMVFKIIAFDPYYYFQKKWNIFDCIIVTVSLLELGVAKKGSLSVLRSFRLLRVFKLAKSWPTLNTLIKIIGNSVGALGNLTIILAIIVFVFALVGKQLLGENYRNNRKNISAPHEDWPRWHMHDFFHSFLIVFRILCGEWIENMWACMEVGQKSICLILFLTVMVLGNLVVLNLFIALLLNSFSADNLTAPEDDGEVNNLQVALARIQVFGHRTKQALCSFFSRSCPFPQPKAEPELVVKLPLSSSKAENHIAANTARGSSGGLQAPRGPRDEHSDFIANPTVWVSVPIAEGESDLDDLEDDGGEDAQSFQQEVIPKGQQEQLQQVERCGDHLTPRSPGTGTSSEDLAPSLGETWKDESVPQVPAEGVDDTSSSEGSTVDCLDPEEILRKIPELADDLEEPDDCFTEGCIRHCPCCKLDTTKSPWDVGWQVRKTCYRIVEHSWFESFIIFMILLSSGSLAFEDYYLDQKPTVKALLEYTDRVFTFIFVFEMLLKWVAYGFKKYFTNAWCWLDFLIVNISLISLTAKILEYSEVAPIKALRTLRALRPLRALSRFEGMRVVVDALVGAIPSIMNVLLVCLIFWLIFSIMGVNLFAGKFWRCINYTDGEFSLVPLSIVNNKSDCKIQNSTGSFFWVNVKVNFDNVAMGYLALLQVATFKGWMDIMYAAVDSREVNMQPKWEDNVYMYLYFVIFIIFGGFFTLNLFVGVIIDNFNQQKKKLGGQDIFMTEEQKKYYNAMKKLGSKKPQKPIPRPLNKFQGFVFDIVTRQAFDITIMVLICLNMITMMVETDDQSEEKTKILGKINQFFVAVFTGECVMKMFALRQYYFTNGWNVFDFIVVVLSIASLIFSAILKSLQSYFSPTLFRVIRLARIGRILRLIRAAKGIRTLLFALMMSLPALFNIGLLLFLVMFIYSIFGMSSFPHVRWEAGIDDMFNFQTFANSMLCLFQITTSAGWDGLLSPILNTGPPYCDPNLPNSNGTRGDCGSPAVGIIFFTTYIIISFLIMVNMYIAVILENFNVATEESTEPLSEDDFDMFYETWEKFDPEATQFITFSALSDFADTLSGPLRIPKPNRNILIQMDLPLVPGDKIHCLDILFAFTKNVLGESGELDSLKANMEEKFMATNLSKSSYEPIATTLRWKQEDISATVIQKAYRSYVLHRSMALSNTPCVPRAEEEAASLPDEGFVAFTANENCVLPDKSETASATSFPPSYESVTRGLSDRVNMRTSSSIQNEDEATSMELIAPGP

Molecule `O=C(CN1CCc2cccc(O)c2C1)N(Cc1ccccc1)c1ccccc1` [Example 25, N-Benzyl-2-(8-hydroxy-3,4-dihydro-1H-isoquinolin-2-yl)-N-phenyl-acetamide] has a pIC50 of 5.97.

Same assay, conditions: Table 1; SH-SY-5Y hNav1.8 cells, inhibition of membrane depolarisation, FLIPR membrane potential dye, 250 nM TTX, test concentration range 100 μM-0.05 μM; read-out: IC50

First: COc1cccc2c1CN(C(=O)CON=C(c1ccccc1)c1ccccc1)CC2 [Example 43, 2-Benzhydrylideneaminooxy-1-(8-methoxy-3,4-dihydro-1H-isoquinoline-2-yl)-ethanone]
Second: COc1cccc2c1CN(CC(=O)NCCC(c1ccccc1)c1ccccc1)CC2 [Example 22, N-(3,3-Diphenyl-propyl)-2-(8-methoxy-3,4-dihydro-1H-isoquinolin-2-yl)-acetamide]
The pIC50 of the first is 0.31 log units lower: 5.78 for the first, 6.09 for the second. The second is the more potent here.

`O=C(CN1CCc2ccccc2C1)N(Cc1ccccc1)c1ccccc1` [Example 17, N-Benzyl-2-(3,4-dihydro-1H-isoquinolin-2-yl)-N-phenyl-acetamide] and `O=C(CNC(c1ccccc1)c1ccccc1)N1CCc2ccccc2C1` [Example 31, 2-(Benzhydryl-amino)-1-(3,4-dihydro-1H-isoquinolin-2-yl)-ethanone] are within 0.2 log units of each other in pIC50: 5.90 for the first, 5.73 for the second.

Going from `O=C(CC(c1ccc(F)cc1)c1ccc(F)cc1)N1CCc2ccccc2C1` [Example 30] to `S=C(NC(c1ccccc1)c1ccccc1)N1CCc2ccccc2C1` [Example 50, 3,4-Dihydro-1H-isoquinoline-2-carbothioic acid benzhydryl-amide], the pIC50 falls from 5.80 to 5.56 (0.24 log units). The first is the more potent here.

In the case of `O=C(CN1Cc2ccccc2C1)NCC(c1ccccc1)c1ccccc1` [Example 66], the pIC50 was 5.69.

Same assay, conditions: Table 2 (compound numbers of the list in the description); SH-SY-5Y hNav1.8 cells, inhibition of membrane depolarisation, FLIPR membrane potential dye, 250 nM TTX, test concentration range 100 μM-0.05 μM; read-out: IC50

Going from `COc1ccc2c(c1)CCCN(CC(=O)NC(c1ccccc1)c1ccccc1)C2` [Compound 83, N-benzhydryl-2-(7-methoxy-1,3,4,5-tetrahydro-benzo[c]azepin-2-yl)-acetamide] to `COc1ccc2c(c1)CCCN(C(=S)NC(c1ccccc1)c1ccccc1)C2` [Compound 76, 7-methoxy-1,3,4,5-tetrahydro-benzo[c]azepine-2-carbothioic acid benzhydryl-amide], the pIC50 falls from 6.08 to 4.83 (1.25 log units).

Going from `CCOc1cccc2c1CN(CC(=O)NCCCC(c1ccccc1)c1ccccc1)CC2` [Compound 92, N-(4,4-Diphenyl-butyl)-2-(8-ethoxy-3,4-dihydro-1H-isoquinolin-2-yl)-acetamide] to `CS(=O)(=O)Nc1cccc2c1CN(CC(=O)NCCCC(c1ccccc1)c1ccccc1)CC2` [Compound 117, N-(4,4-Diphenyl-butyl)-2-(8-methanesulfonylamino-3,4-dihydro-1H-isoquinolin-2-yl)-acetamide], the pIC50 rises from 5.32 to 5.87 (0.55 log units).

Compared with `COc1cccc2c1CN(CC(=O)Nc1ccc(Oc3ccccc3)cc1)CC2` [Compound 172, 2-(8-Methoxy-3,4-dihydro-1H-isoquinolin-2-yl)-N-(4-phenoxy-phenyl)-acetamide], `COc1cccc2c1CN(CC(=O)NNC(=O)N(c1ccccc1)c1ccccc1)CC2` [Compound 186, 1-[(8-Methoxy-3,4-dihydro-1H-isoquinolin-2-yl)-acetyl]-4,4-diphenylsemicarbazide] is 0.66 log units lower in pIC50: 5.20 for the first, 4.54 for the second. The first is the more potent here.

Going from `Nc1cccc2c1CN(CCCC(c1ccc(F)cc1)c1ccc(F)cc1)CC2` [Compound 110, 2-[4,4-Bis-(4-fluoro-phenyl)-butyl]-1,2,3,4-tetrahydro-isoquinolin-8-ylamine] to `Nc1cccc2c1CN(CCCC(c1ccc(F)cc1)c1ccc(F)cc1)C2` [Compound 102, 2-[4,4-Bis-(4-fluoro-phenyl)-butyl]-2,3-dihydro-1H-isoindol-4ylamine], the pIC50 falls from 6.32 to 6.07 (0.25 log units). The first is the more potent here.

First: COc1ccc(C(CCNC(=O)CN2CCc3cccc(OC)c3C2)c2ccc(OC)cc2)cc1 [Compound 115, N-[3,3-Bis-(4-methoxy-phenyl)-propyl]-2-(8-methoxy-3,4-dihydro-1H-isoquinolin-2-yl)-acetamide]
Second: COc1ccc(C2COc3ccccc3N2C(=O)CN2CCc3cccc(OC)c3C2)cc1 (stereo not drawn) [Compound 212, 2-(8-Methoxy-3,4-dihydro-1H-isoquinolin-2-yl)-1-[3-(4-methoxy-phenyl)-2,3-dihydro-benzo[1,4]oxazin-4-yl]-ethanone]
The pIC50 of the first is 0.33 log units higher: 5.63 for the first, 5.30 for the second.

`COc1cccc2c1CN(CC(=O)N1c3ccccc3Oc3cnn(C)c31)CC2` [Compound 199, 2-(8-Methoxy-3,4-dihydro-1H-isoquinolin-2-yl)-1-(1-methyl-1H-4-oxa-1,2,9-triaza-cyclopenta[b]naphthalen-9-yl)-ethanone] and `COc1ccc(OC)c(C2COc3ccccc3N2C(=O)CN2CCc3cccc(OC)c3C2)c1` (stereo not drawn) [Compound 213, 1-[3-(2,5-Dimethoxy-phenyl)-2,3-dihydro-benzo[1,4]oxazin-4-yl]-2-(8-methoxy-3,4-dihydro-1H-isoquinolin-2-yl)-ethanone] are the same in pIC50: 5.08 for the first, 5.08 for the second.

For `O=C(CN1Cc2ccccc2C1)NCC(c1ccccc1)c1ccccc1` [Example 66], the pIC50 was 5.69.
